Where “and” joins values, the source holds several entries; their conditions need not be identical. Identical values can stand only once. Toxic doses and inconclusive results are not listed.

This is an account of results in PubChem BioAssay AID328 (DTP/NCI, 2004).

The experiment has as its system BDF1 mice, P388 leukemia ip, median survival T/C. Description: NCI In Vivo Anticancer Drug Screen. Data for tumor model P388 Leukemia (intraperitoneal) in B6D2F1 (BDF1) mice. The settings on record: endpoint: median survival time, higher = longer survival. In short, it runs like this: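 Each value expresses how treatment altered survival: treated-mouse outcome over vehicle-mouse outcome, both groups bearing the transplanted tumour.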

Where [1] appears, read: dose: 6.25 mg/kg/injection, schedule: Q01DX009 (ip), vehicle: saline.
The mark [2] stands for this setting: dose: 25.0 mg/kg/injection, schedule: Q01DX009 (ip), vehicle: saline.
Where [3] appears, read: dose: 100.0 mg/kg/injection, schedule: Q01DX009 (ip), vehicle: other.
Setting [4] is: dose: 200.0 mg/kg/injection, schedule: Q01DX009 (ip), vehicle: other.
Setting [5] is: dose: 400.0 mg/kg/injection, schedule: Q01DX009 (ip), vehicle: other.
Where [6] appears, read: dose: 100.0 mg/kg/injection, schedule: Q04DX003 (ip), vehicle: other.

For `Nc1nc(C(F)(F)F)c(CCCCc2ccccc2)c(=O)[nH]1`, the T/C by setting is: (dose: 100.0 mg/kg/injection, schedule: Q01DX001 (ip), vehicle: Klucel (hydroxypropylcellulose) (HPC)) 111 % of control; (dose: 200.0 mg/kg/injection, schedule: Q01DX001 (ip), vehicle: Klucel (hydroxypropylcellulose) (HPC)) 117 % of control; (dose: 400.0 mg/kg/injection, schedule: Q01DX001 (ip), vehicle: Klucel (hydroxypropylcellulose) (HPC)) 98 % of control.
For the molecule `CNC(=O)OCc1c(-c2ccccc2)nc2sccn12`, the T/C reads like this: (dose: 12.5 mg/kg/injection, schedule: Q01DX001 (ip), vehicle: Klucel (hydroxypropylcellulose) (HPC)) 109 % of control; (dose: 25.0 mg/kg/injection, schedule: Q01DX001 (ip), vehicle: Klucel (hydroxypropylcellulose) (HPC)) 113 % of control.
In the case of `CCN(CC)CCOC(=O)c1ccc(NC(=O)Nc2ccc(C(=O)OCCN(CC)CC)cc2)cc1`, the T/C (dose: 100.0 mg/kg/injection, schedule: Q01DX009 (ip), vehicle: saline with Tween-80) is 119 % of control.
For the molecule `CC1=CP(=O)(O)CC1`, the T/C runs as follows: (dose: 50.0 mg/kg/injection, schedule: Q01DX009 (ip), vehicle: saline) 95 % of control; (dose: 100.0 mg/kg/injection, schedule: Q01DX009 (ip), vehicle: saline) 95 % of control.
Turning to `CN(C)c1ccc(C(O)C(N)=O)cc1` (stereo not given), the T/C is, setting by setting: under setting [1], 90 % of control; under setting [2], 90 % of control.
For `COc1cc(OC)c2c(O)c3c(c(-c4ccc5cc6c(c(O)c5c4O)C(=O)CC(C)(O)C6)c2c1)CC(C)OC3C` (stereo not given), the T/C reads like this: (dose: 0.19 mg/kg/injection, schedule: Q01DX009 (ip), vehicle: olive oil, sesame oil, peanut oil) 106 % of control; (dose: 0.39 mg/kg/injection, schedule: Q01DX009 (ip), vehicle: olive oil, sesame oil, peanut oil) 91 % of control; (dose: 0.78 mg/kg/injection, schedule: Q01DX009 (ip), vehicle: olive oil, sesame oil, peanut oil) 106 % of control; (dose: 1.56 mg/kg/injection, schedule: Q01DX009 (ip), vehicle: olive oil, sesame oil, peanut oil) 102 % of control and 111 % of control.
As for `CCCCN1C/C(=C\c2ccc(Br)cc2)C(=O)/C(=C/c2ccc(Br)cc2)C1`, the T/C is, setting by setting: (dose: 6.25 mg/kg/injection, schedule: Q01DX005 (ip), vehicle: saline with Tween-80) 91 % of control; (dose: 12.5 mg/kg/injection, schedule: Q01DX005 (ip), vehicle: saline with Tween-80) 95 % of control.
As for `Cc1ccc(S(=O)(=O)N/N=C/C(O)CO)cc1` (stereo not given), the T/C is, setting by setting: (dose: 3.13 mg/kg/injection, schedule: Q01DX009 (ip), vehicle: other) 98 % of control; (dose: 6.25 mg/kg/injection, schedule: Q01DX009 (ip), vehicle: other) 91 % of control; (dose: 12.5 mg/kg/injection, schedule: Q01DX009 (ip), vehicle: other) 98 % of control and 101 % of control; (dose: 25.0 mg/kg/injection, schedule: Q01DX009 (ip), vehicle: other) 98 % of control; (dose: 50.0 mg/kg/injection, schedule: Q01DX009 (ip), vehicle: other) 96 % of control; under setting [3], 99 % of control. The T/C under setting [4] was 98 % of control and the T/C under setting [5] is 102 % of control.
Regarding `O=[N+]([O-])c1ccc2c(c1)CCCC2`, the T/C runs as follows: under setting [3], 113 % of control; under setting [6], 109 % of control; under setting [4], 118 % of control; (dose: 200.0 mg/kg/injection, schedule: Q04DX003 (ip), vehicle: other) 118 % of control; under setting [5], 122 % of control; (dose: 400.0 mg/kg/injection, schedule: Q04DX003 (ip), vehicle: other) 113 % of control.
As for `O=c1c(Br)cccc(CN2CCOCC2)c1O`, the T/C is 101 % of control (dose: 12.5 mg/kg/injection, schedule: Q04DX002 (ip), vehicle: saline with Tween-80); 96 % of control (dose: 25.0 mg/kg/injection, schedule: Q04DX002 (ip), vehicle: saline with Tween-80); 101 % of control and 106 % of control (dose: 50.0 mg/kg/injection, schedule: Q04DX002 (ip), vehicle: saline with Tween-80).
`N#Cc1ccc(C[n+]2cccc3c([N+](=O)[O-])cccc32)cc1`: the T/C was 103 % of control (dose: 12.5 mg/kg/injection, schedule: Q01DX009 (ip), vehicle: saline with Tween-80); 108 % of control (dose: 25.0 mg/kg/injection, schedule: Q01DX009 (ip), vehicle: saline with Tween-80); 118 % of control (dose: 50.0 mg/kg/injection, schedule: Q01DX009 (ip), vehicle: saline with Tween-80).
Regarding `CCC1CCN2CCc3c([nH]c4ccccc34)C(C(=O)OC)(c3cc4c(cc3OC)N(C)C3C(O)(C(=O)OC)C(OC(C)=O)C5(CC)CCCN6CCC43C65)CC2C1` (stereo not given), the T/C is, setting by setting: (dose: 0.06 mg/kg/injection, schedule: Q01DX009 (ip), vehicle: water) 95 % of control; (dose: 0.12 mg/kg/injection, schedule: Q01DX009 (ip), vehicle: water) 100 % of control; (dose: 0.25 mg/kg/injection, schedule: Q01DX009 (ip), vehicle: water) 104 % of control; (dose: 0.5 mg/kg/injection, schedule: Q01DX009 (ip), vehicle: water) 95 % of control; (dose: 1.0 mg/kg/injection, schedule: Q01DX009 (ip), vehicle: water) 86 % of control and 104 % of control; (dose: 2.0 mg/kg/injection, schedule: Q01DX009 (ip), vehicle: water) 90 % of control and 95 % of control. For the same molecule, the T/C was 90 % of control (dose: 4.0 mg/kg/injection, schedule: Q01DX009 (ip), vehicle: water) and 95 % of control (dose: 8.0 mg/kg/injection, schedule: Q01DX009 (ip), vehicle: water).
With `CCC1CCCCN1C(=S)N/N=C(\C)c1ccccn1` (stereo not given), the T/C was 102 % of control (dose: 3.12 mg/kg/injection, schedule: Q04DX003 (ip), vehicle: saline with Tween-80) and 114 % of control (dose: 12.5 mg/kg/injection, schedule: Q04DX003 (ip), vehicle: saline with Tween-80).
For the molecule `O=C(CC(O)(C(F)(F)F)C(F)(F)F)c1ccc(F)cc1`, under setting [6], the T/C is 120 % of control.
For the molecule `COc1cc(C(=O)OC2CC34CCNC35CC(OC5(OC)C2O)c2cc3c(cc24)OCO3)ccc1O` (stereo not given), the T/C is 100 % of control (dose: 0.5 mg/kg/injection, schedule: Q01DX010 (ip), vehicle: saline); 86 % of control (dose: 1.0 mg/kg/injection, schedule: Q01DX010 (ip), vehicle: carboxymethylcellulose (CMC)); 118 % of control (dose: 1.0 mg/kg/injection, schedule: Q01DX010 (ip), vehicle: saline); 95 % of control (dose: 2.0 mg/kg/injection, schedule: Q01DX010 (ip), vehicle: saline).
In the case of `Cc1ccc(NCCN(C)C)c2c(=O)c3ccccc3sc12`, the T/C reads like this: under setting [1], 96 % of control; (dose: 12.0 mg/kg/injection, schedule: Q04DX003 (ip), vehicle: saline) 105 % of control; (dose: 12.5 mg/kg/injection, schedule: Q01DX009 (ip), vehicle: saline) 103 % of control; (dose: 19.0 mg/kg/injection, schedule: Q04DX003 (ip), vehicle: saline) 120 % of control; under setting [2], 107 % of control; (dose: 100.0 mg/kg/injection, schedule: Q04DX003 (ip), vehicle: alcohol) 155 % of control. Moreover, the T/C reads like this: (dose: 100.0 mg/kg/injection, schedule: Q04DX003 (ip), vehicle: saline) 168 % of control and 170 % of control; (dose: 150.0 mg/kg/injection, schedule: Q04DX003 (ip), vehicle: saline) 205 % of control; (dose: 200.0 mg/kg/injection, schedule: Q04DX003 (ip), vehicle: alcohol) 100 % of control.
